Data: US9868956B2, “Methods” (North Carolina State University, priority 2009, dated 2018)

Columns and labels:
[1] = molecular target: T1, MbPyIRS/tRNACUA pair (Methanosarcina barkeri, UniProt Q6WRH6); test: Expression of myoglobin-his6 (amber codon at position 4) in E. coli with the MbPyIRS/tRNACUA pair in the presence of the amino acid; format: cell-based; settings: for yield of full-length myoglobin-his6 purified by Ni-NTA chromatography: E. coli with pBKPylS and pMyo4TAGPylT-his6, amino acid added to log phase cells (1 mM for 1 and 2); for incorporation by the MbPyIRS/tRNACUA pair (myoglobin-his6 purified by Ni-NTA chromatography): E. coli, 1 mM amino acid
T1 construct: expressed in transfected cells; host or cells: E. coli DH10B transformed with pBKPylS and pMyo4TAGPylT-his6
Description: To investigate whether 1 and 2 are substrates for the MbPyIRS/tRNACUA pair, we transformed E. coli with pBKPylS10 (which encodes MbPyIRS) and pMyo4TAGPylT-his610 (which encodes MbtRNACUA and a C-terminally hexahistidine tagged myoglobin gene with an amber codon at position 4). We added 1 or 2 (1 mM) to log phase cells and induced myoglobin-his6 expression. […] This may reflect the greater flexibility of the carbamate linkage. The yield of protein containing 2 was not improved by efforts to evolve the enzyme but was increased 5-fold by increasing the concentration of 2 7.5 fold (Supplementary FIG. 2A).
To investigate if the carbamate linkage provides a general route to the incorporation of other functional groups suitable for bioconjugation, we synthesized a simple aliphatic azide 3 (2 steps, 80% yield, Supplementary Scheme 1 and Supplementary Methods).
To express sperm whale myoglobin with an incorporated unnatural amino acid, we transformed E. coli DH10B cells with pBKPylS and pMyo4TAGPylT-his6. Cells were recovered in 1 mL of LB media for 1 h at 37° C., before incubation (16 h, 37° C., 250 r.p.m.) in 100 mL of LB containing kanamycin (50 μg/mL) and tetracycline (25 μg/mL). 20 mL of this overnight culture was used to inoculate 500 mL of LB supplemented with kanamycin (25 μg/mL), tetracycline (12 μg/mL) and 2 mM of 2. Cells were grown (37° C., 250 r.p.m.), and protein expression was induced at OD600-0.6, by addition of arabinose to a final concentration of 0.2%. After 3 h of induction, cells were harvested. Proteins were extracted by sonication at 4° C. The extract was clarified by centrifugation (20 min, 21,000 g, 4° C.), 300 μL of Ni^2+-NTA beads (Qiagen) were added to the extract, the mixture was incubated with agitation for 1 h at 4° C. Beads were collected by centrifugation (10 min, 1000 g). The beads were twice resuspended in 50 mL wash buffer and spun down at 1000 g. Subsequently, the beads were resuspended in 20 ml of wash buffer and transferred to a column. Protein was eluted in 1 ml of wash buffer supplemented with 200 mM imidazole and was then re-buffered to 20 mM ammonium bicarbonate using a sephadex G25 column. The purified proteins were analysed by 4-12% SDS-PAGE.
E. coli DH10B cells containing pBKPylS and pMyo4TAGPylT were inoculated into LB containing kanamycin (50 μg/mL) and tetracycline (25 μg/mL). The cells were incubated with shaking overnight at 37° C. 200 μL of cells were inoculated into each of 3 mL LB aliquots containing kanamycin (25 μg/mL) and tetracycline (12 μg/mL) and supplemented with different concentrations (7.5 mM, 5 mM, 2.5 mM, 1 mM, 0.75 mM, 0.5 mM, 0.25 mM, 0.1 mM, 0 mM) of 2. After 3 h of incubation with shaking at 37° C., protein expression was induced by the addition of 30 μL of 20% arabinose. After 12 h of expression, cell were collected by centrifugation (16000 g, 5 min) of 1 mL of cell suspension. The cells were resuspended in 100 μL of NuPAGE SDS Sample buffer supplemented with 10% f3-mercaptoethanol, heated at 80° C. for 10 min and centrifuged at 16000 g for 10 min. The crude cell lysate was analysed by 4-12% SDS-PAGE. Western blots were performed with antibodies against the hexahistidine tag (Invitrogen AntiHis monoclonal Mouse antibody).

[2] = Labeling of myoglobin-his6 bearing 2 with azido-probes via copper catalysed [3+2] cycloaddition; settings: biotin azide 5 or By3 azide 6; CuSO4/ascorbate/ligand, pH 8.3
Description: In control experiments myoglobin-his6 bearing 3 at position 4 was treated identically. After 18 h, the purified labeling reactions were probed (FIG. 2A).
Quantification of the ratio of biotin or By3 to protein in purified samples provides independent confirmation of the labeling efficiency (Supplementary Methods).
Protein was re-buffered to 100 mM sodium phosphate buffer (pH 8.3) and concentrated to 2.5 mg/mL. 100 mM stock solutions of CuSO4, sulfonated bathophenanthroline sodium salt (GFS Chemicals) and sodium ascorbate in water were prepared, pre-mixed and incubated at room temperature for 5 min. Myoglobin containing 2 (13.5 nmol) was reacted for 15 minutes at 25° C., then 4° C. for 18 h with the biotin azide (Quanta Biodesign) 5 or the By3 azide (Primetech LTD) 6 (50 equivalents, 10 mM in DMSO) and CuSO4 (1 mM)/ascorbate (1 mM)/ligand (2 mM)^20. After 18 h, the solutions were diluted to 1 mL and loaded onto an Illustra™ NAP-10 column. Proteins were eluted into 1.5 mL of 20 mM NH4HCO3, dialyzed overnight with 20 mM NH4HCO3, loaded onto PD10 and eluted into 3.5 mL 20 mM NH4HCO3. […] Protein concentration of the labeled samples were measured by BCA Protein Assay (Thermo Scientific). The Biotin Quantitation Kit (Thermo Scientific) was used to quantify biotin-conjugated protein in labeled samples, and the By3 absorbance at 550 nm was used to quantify purified By3-labeled protein. […]

T1 sequence (Q6WRH6 whole entry): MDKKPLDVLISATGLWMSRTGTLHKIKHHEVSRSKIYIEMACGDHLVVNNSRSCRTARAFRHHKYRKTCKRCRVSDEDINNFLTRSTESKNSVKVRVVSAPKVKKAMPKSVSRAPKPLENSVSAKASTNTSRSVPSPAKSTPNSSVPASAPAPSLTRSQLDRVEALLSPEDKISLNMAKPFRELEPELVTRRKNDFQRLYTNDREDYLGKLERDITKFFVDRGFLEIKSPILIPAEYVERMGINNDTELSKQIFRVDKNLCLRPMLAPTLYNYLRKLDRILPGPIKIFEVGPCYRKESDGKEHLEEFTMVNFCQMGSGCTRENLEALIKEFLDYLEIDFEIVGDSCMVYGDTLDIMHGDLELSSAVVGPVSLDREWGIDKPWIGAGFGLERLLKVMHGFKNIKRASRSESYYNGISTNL

SMILES | yield of full-length myoglobin-his6 purified by Ni-NTA chromatography [1] [mg/L] | labeling of genetically encoded alkyne with azides that introduce biotin or fluorescent groups [2] | incorporation by the MbPyIRS/tRNACUA pair (myoglobin-his6 purified by Ni-NTA chromatography) [1] | increase in yield of protein containing 2 ([1]; on increasing the concentration of 2 7.5 fold, Western blot against his-6 in cell lysates) [fold]
O=C(O)C(F)(F)F.[N-]=[N+]=NCCOC(=O)NCCCC[C@H](N)C(=O)O [compound 3, (S)-2-amino-6-((2-azidoethoxy)carbonylamino)hexanoic acid TFA salt] | 3 |  |  | 
C#CCOC(=O)NCCCC[C@H](N)C(=O)O.O=C(O)C(F)(F)F [compound 2, (S)-2-amino-6-((prop-2-ynyloxy)carbonylamino)hexanoic acid TFA salt] | 2 | specifically and efficiently labeled | incorporated | 5
C#CCCC(=O)NCCCC[C@H](N)C(=O)O.O=C(O)C(F)(F)F [compound 1, (S)-2-amino-6-pent-4-ynamidohexanoic acid TFA salt] |  |  | only background levels | 
